{"source": "paper PMC5303819", "about": "“Cryptic bioactivity capacitated by synthetic hybrid plant peptides” (Nature Communications, 2017)", "key": {"[1]": {"system": "Arabidopsis thaliana root", "assay": "Root-shortening assay (root length)", "assay_type": "in vivo", "conditions": "for CLV3-type activity: root 1 µM (stele 10 µM), Supplementary Fig. 8; for root-shortening activity: 1 μM peptide, 14-day-old root length, Fig. 1b, n=13-20", "method": "(§1) For root-length measurement, plants were germinated and grown vertically on half-strength Murashige and Skoog (MS) medium supplemented with 1% sucrose and peptide/control solution at 22 °C under continuous light. To observe the RAM, 4-day-old roots were excised and mounted in clearing solution (chloral hydrate/glycerol/water=8:1:2) before imaging with light microscope (Axio Imager.A2, Zeiss)."}, "hypocotyl stele": {"system": "hypocotyl stele", "assay": "Stele-thickening assay (hypocotyl stele width)", "assay_type": "in vivo, Arabidopsis thaliana", "conditions": "for effect on stele radial growth / stele width: 10 μM peptide, liquid medium, 10-day-old hypocotyl, Fig. 1e,f", "method": "(§2) For the observation of stele and leaf vein, seeds were germinated and cultured with shaking at 110 r.p.m. at 22 °C under continuous light in liquid half-strength MS medium supplemented with 1% sucrose and peptide/control solution. 10-day-old seedlings were fixed in a 1:3 mixture of acetic acid/ethanol, washed with water and mounted in clearing solution (chloral hydrate/glycerol/water=8:1:2) before imaging with a light microscope (Axio Imager.A2, Zeiss)."}, "[2]": {"biological_target": "T1, CLV1 ectodomain (CLV1-HT) (Arabidopsis thaliana, UniProt Q9SYQ8)", "T1 construct": "applied it to the membrane fractions containing receptor ectodomains expressed in tobacco cells; made in house; host or cells: tobacco BY-2 cells (microsomal fraction)", "T1 sequence (Q9SYQ8 25-638 limits assumed)": "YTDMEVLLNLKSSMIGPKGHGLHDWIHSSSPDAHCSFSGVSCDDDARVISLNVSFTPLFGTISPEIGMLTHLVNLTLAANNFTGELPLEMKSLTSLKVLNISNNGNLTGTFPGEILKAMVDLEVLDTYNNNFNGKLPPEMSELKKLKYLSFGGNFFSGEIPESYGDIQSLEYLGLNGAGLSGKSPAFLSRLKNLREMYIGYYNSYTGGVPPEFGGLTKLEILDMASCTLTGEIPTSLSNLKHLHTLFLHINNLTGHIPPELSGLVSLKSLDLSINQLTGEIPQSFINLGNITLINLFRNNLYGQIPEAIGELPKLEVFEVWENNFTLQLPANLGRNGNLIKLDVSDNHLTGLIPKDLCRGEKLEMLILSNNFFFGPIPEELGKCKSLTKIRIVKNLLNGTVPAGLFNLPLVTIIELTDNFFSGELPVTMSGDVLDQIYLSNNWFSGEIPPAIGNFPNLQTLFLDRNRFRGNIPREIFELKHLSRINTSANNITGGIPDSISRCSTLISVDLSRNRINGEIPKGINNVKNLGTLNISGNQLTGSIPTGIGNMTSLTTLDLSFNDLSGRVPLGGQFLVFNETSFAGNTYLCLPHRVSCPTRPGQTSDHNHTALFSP", "assay": "Photo-affinity labelling with [125I]ASA-KIN, CLV1", "assay_type": "binding", "method": "(§3) Aliquots (1,000 μg) of microsomal proteins for Halo-tagged receptors (CLV1-HT[10], TDR-HT[7] and CLV2-HT[20]) from tobacco BY-2 cells were suspended in 250 μl binding buffer (50 mM MES-KOH pH 5.5 with 100 mM sucrose) containing 30 nM [^125I]ASA-KIN in the presence or absence of various concentrations of competitor peptides indicated in corresponding figure legends and then incubated for 10 min on ice. The bound and free [^125I]ASA-KIN were separated by layering the reaction mixture onto 900 μl of wash buffer (50 mM MES-KOH pH 5.5 with 500 mM sucrose) and centrifuging for 5 min at 100,000 g at 4 °C. After discarding the supernatant, the pellet was irradiated on ice for 20 min with an ultraviolet lamp (model ENF-260C/J (365 nm), Spectronics Co. Ltd) at a distance of 1 cm. The cross-linked membrane proteins were solubilized, immunoprecipitated by using HaloTag antibody and separated by SDS–PAGE on a 7.5% acrylamide gel. The dried gels were exposed to the bio-imaging plate (MS 2,025, Fujifilm) for 2 days at room temperature and the plates were analysed using a bio-imaging analyser (Typhoon FLA 900, GE)."}, "[3]": {"system": "Arabidopsis thaliana root", "conditions": "cited from earlier work", "excerpt": "CLV3-like activities have also been reported in other 18 CLE peptides. […] We analysed the structure–activity relationship between CLV3 (Fig. 1a, peptide 1) and CLE25 (Fig. 1a, peptide 2) by swapping the residues at 2nd, 5th, 10th and 12th positions (Fig. 1a, peptide 3–16). […] Although all the chimera peptides shortened the root, only the peptide 15, hereafter call ..."}, "[4]": {"system": "root apical meristem (RAM)", "assay": "Root apical meristem (RAM) morphology", "assay_type": "in vivo, Arabidopsis thaliana", "conditions": "1 μM peptide, 4-day-old, wild type, Fig. 1c", "method": "as §1"}, "[5]": {"biological_target": "T2, CLV2 ectodomain (CLV2-HT) (Arabidopsis thaliana, UniProt O80809)", "T2 construct": "made in house; host or cells: tobacco BY-2 cells (microsomal fraction)", "T2 sequence (O80809 26-686 limits assumed)": "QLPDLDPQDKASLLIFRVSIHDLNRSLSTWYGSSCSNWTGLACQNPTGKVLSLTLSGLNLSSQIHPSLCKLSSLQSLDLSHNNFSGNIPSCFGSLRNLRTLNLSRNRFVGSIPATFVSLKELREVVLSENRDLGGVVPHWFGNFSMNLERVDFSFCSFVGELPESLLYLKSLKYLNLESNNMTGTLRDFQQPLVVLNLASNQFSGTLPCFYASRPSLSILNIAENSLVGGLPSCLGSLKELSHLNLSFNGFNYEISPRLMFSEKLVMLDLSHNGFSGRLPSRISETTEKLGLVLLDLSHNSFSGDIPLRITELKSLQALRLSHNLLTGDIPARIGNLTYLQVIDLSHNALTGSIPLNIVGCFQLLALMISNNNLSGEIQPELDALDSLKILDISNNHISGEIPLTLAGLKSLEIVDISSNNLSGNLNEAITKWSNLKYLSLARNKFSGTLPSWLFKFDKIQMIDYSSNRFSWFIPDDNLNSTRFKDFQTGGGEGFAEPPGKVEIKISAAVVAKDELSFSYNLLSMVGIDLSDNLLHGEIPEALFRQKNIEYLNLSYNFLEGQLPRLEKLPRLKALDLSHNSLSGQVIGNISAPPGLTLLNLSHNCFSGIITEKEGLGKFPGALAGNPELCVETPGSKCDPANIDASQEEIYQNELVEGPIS", "assay": "Photo-affinity labelling with [125I]ASA-KIN, CLV2", "assay_type": "binding", "conditions": "30 nM [125I]ASA-KIN probe, same condition, Supplementary Fig. 6", "method": "as §3"}, "TDR ectodomain (TDR-HT)": {"biological_target": "T3, TDR ectodomain (TDR-HT) (Arabidopsis thaliana, UniProt Q9FII5)", "T3 construct": "applied it to the membrane fractions containing receptor ectodomains expressed in tobacco cells; made in house; host or cells: tobacco BY-2 cells (microsomal fraction)", "T3 sequence (Q9FII5 30-652 limits assumed)": "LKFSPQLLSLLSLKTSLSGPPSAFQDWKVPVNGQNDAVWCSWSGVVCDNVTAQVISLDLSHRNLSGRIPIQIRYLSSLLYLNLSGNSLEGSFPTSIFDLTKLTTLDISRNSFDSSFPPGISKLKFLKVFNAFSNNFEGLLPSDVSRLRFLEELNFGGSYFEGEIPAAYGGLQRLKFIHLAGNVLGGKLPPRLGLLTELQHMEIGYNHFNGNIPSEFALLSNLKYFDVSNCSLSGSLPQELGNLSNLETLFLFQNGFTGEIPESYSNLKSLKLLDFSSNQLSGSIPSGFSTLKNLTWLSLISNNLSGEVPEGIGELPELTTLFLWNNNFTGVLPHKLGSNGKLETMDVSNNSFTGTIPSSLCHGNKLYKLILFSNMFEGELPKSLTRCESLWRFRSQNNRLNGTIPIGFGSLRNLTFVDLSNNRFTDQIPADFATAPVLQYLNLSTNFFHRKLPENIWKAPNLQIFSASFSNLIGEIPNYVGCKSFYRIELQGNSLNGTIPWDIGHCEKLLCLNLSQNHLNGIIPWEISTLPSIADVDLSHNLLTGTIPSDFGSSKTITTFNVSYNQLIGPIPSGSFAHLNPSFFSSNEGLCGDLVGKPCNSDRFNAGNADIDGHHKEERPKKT", "assay": "Photo-affinity labelling with [125I]ASA-KIN, TDR", "assay_type": "binding", "method": "as §3"}, "leaf vein xylem strands": {"system": "leaf vein xylem strands", "assay": "Leaf vein xylem strand observation", "assay_type": "in vivo, Arabidopsis thaliana", "conditions": "10 μM peptide, 10-day-old clv2-101, Fig. 2c", "method": "as §2"}, "[6]": {"system": "shoot apical meristem (SAM)", "assay": "Shoot apical meristem (SAM) morphology in sections", "assay_type": "in vivo, Arabidopsis thaliana", "conditions": "10 μM peptide, 10-day treatment", "method": "To observe the SAM, plants were germinated and grown at 22 °C under continuous light on half-strength MS medium supplemented with 1% sucrose and 10 μM peptide/control solution. To make sections, roots and leaves were cut off from 10-day-old seedlings, then fixed in FAA solution (50% ethanol:10% formalin:5% acetic acid in water) and embedded into Technovit 7,100 resin according to the manufacturer's instructions (Heraeus Kulzer). Four-micrometre-thin sections were made using a microtome (RM2235, Leica), stained with 0.05% toluidine blue and mounted in Entellan New (Merck) before observation with a light microscope (Axio Imager.A2, Zeiss)."}, "[7]": {"conditions": "wild type, Supplementary Fig. 1"}, "[8]": {"conditions": "30 nM probe, MES-KOH pH 5.5, 10 min on ice, tobacco BY-2 microsomes, Fig. 3c"}, "[9]": {"conditions": "various concentrations of KIN, Supplementary Fig. 7"}}, "data": [{"substance": "CLV3-S^11th: CLV3 with H-to-S substitution at the 11th position (RTVPSGPDPLSHH; MCLV3; UniProt Q9XF04 70-82, looked up, variant H11S)", "values": [{"measurement": "CLV3-type activity", "setting": "[1]", "value": "neither CLV3 nor CLE41 activity"}, {"measurement": "CLV3-type activity", "setting": "[1]; listed as peptide 24", "value": "even weaker than KIN-1δ"}, {"measurement": "CLE41-type activity", "setting": "hypocotyl stele; stele 10 µM, Supplementary Fig. 8", "value": "neither CLV3 nor CLE41 activity"}, {"measurement": "interaction with CLV1 in competitive displacement assay with [125I]ASA-KIN", "setting": "[2]; Supplementary Fig. 10", "value": "retained the interaction with CLV1"}]}, {"substance": "CLE25: endogenously encoded CLE peptide sequence, CLV3-type, synthesized without hydroxyprolines (RKVPNGPDPIHN; CLE25p no hydroxyprolines; UniProt Q8LFL4 58-69, looked up)", "values": [{"measurement": "root-shortening activity", "setting": "[1]; wild type", "value": "showed root-shortening activities"}, {"measurement": "concentration at which bioactivity starts in root shortening assay", "setting": "[1]; [7]", "value": "~ 100 nM"}, {"measurement": "effect on stele radial growth / stele width", "setting": "hypocotyl stele; wild type, 2b", "value": "reduce the thickening of vascular tissues in the hypocotyl"}, {"measurement": "effectiveness in the root-shortening assay", "setting": "[3]", "value": "more effective than CLV3"}, {"measurement": "size of the root apical meristem (RAM)", "setting": "[4]", "value": "reduced"}]}, {"substance": "[^125I]-radiolabelled [(4-azidosalicyl)Lys^2]KIN [[^125I]ASA-KIN]", "values": [{"measurement": "photo-affinity labelling of CLV1 ectodomain", "setting": "[2]; [8]", "value": "covalently labelled"}, {"measurement": "competitive displacement of probe binding to CLV1 by KIN", "setting": "[2]; [9]", "value": "binds to these receptors in a similar manner"}, {"measurement": "interaction with CLV2 ectodomain", "setting": "[5]", "value": "no interaction was detected"}, {"measurement": "photo-affinity labelling of TDR ectodomain", "setting": "TDR ectodomain (TDR-HT); [8]", "value": "covalently labelled"}, {"measurement": "competitive displacement of probe binding to TDR by KIN", "setting": "TDR ectodomain (TDR-HT); [9]", "value": "binds to these receptors in a similar manner"}]}, {"substance": "CLV3: endogenously encoded 12 amino-acid CLE peptide, chemically synthesized without hydroxyprolines", "values": [{"measurement": "root-shortening activity", "setting": "[1]; wild type", "value": "showed root-shortening activities"}, {"measurement": "response of clv2-101 mutant, root length and RAM size", "setting": "[1]; clv2-101 mutant, Supplementary Fig. 3a,b", "value": "resistant"}, {"measurement": "dose-response of root growth attenuation", "setting": "[1]; wild type, 1 nM-1 µM, Supplementary Fig. 1", "value": "attenuates the root growth in a lower concentration than CLE25 and KIN"}, {"measurement": "concentration at which bioactivity starts in root shortening assay", "setting": "[1]; [7]", "value": "~ 10 nM"}, {"measurement": "response of clv2-101 mutant to inhibitory activity on stele width", "setting": "hypocotyl stele; 100 nM peptide, clv2-101 mutant, Fig. 2b", "value": "insensitive"}, {"measurement": "effect on stele width at 100 nM", "setting": "hypocotyl stele; 100 nM peptide, wild type, 10-day-old, Fig. 1g, 2b", "value": "reduced the stele width"}, {"measurement": "effect on stele radial growth / stele width", "setting": "hypocotyl stele; wild type, 2b", "value": "reduced radial growth of the stele"}, {"measurement": "lowest concentration with negative effect on stele growth", "setting": "hypocotyl stele; wild type, 10-day-old, dose-response Fig. 1g", "value": 30, "unit": "nM"}, {"measurement": "effect on xylem differentiation in leaf vein", "setting": "leaf vein xylem strands", "value": "not observed"}, {"measurement": "size of the root apical meristem (RAM)", "setting": "[4]", "value": "reduced"}, {"measurement": "competition of [125I]ASA-KIN labelling of CLV1", "setting": "[2]; 1,000-fold excess non-radio-labelled peptide, Fig. 3c", "value": "competitively inhibited"}, {"measurement": "SAM of clv1-101 and clv2-101 mutants after treatment", "setting": "[6]; loss-of-function mutants, Fig. 2a", "value": "maintained"}, {"measurement": "effect on SAM", "setting": "[6]; wild type, Fig. 1d", "value": "disappeared"}]}, {"substance": "[(4-azidosalicyl)Lys^2]KIN [ASA-KIN]", "values": [{"measurement": "bioactivity compared with KIN, root shortening", "setting": "[1]; 10 nM-1 µM, Supplementary Fig. 5b", "value": "reduced compared with the original KIN"}, {"measurement": "bioactivity compared with KIN, hypocotyl stele thickening", "setting": "hypocotyl stele; Supplementary Fig. 5c", "value": "reduced compared with the original KIN"}]}]}
